# Assay results taken from patent US20240368605A1, “USE OF SPLICE SWITCHING OLIGONUCLEOTIDES FOR EXON SKIPPING-MEDIATED KNOCKDOWN OF PIM2” (INSTITUT NATIONAL DE LA SANTÉ ET DE LA RECHERCHE MÉDICALE, priority 2021, published 2024).
# Experiments:
# Type in all cases: cell-based, human
# [1] = test system: PIM2; test: PIM2 expression in in vitro differentiated activated B cells / plasmablasts after SSO treatment (mRNA, PCR, western blot, immunofluorescence)
# Procedure: FIG. 1. Specific PIM2 inhibition affects the generation of plasmablasts • A. Diagram explaining SSO-PIM2 action. It binds to the second exon of the gene PIM2 leading in a skip of this exon during transcription and finally results to a frame shift and created an early stop-codon during translation. The protein is so a non-functional truncated protein. • B. Activated B cells were treated at D4 with an increasing dose of SSO-PIM2 and SSO-CTL (control condition) and recovered 48 hours later (at D6). PIM2 mRNA residual expression compared to the control condition adjust at 100% (mean±SD, n=3) and agarose gel of PIM2 PCR, showing exon skipping. • C. At D4, activated B cells were treated with SSO-PIM2 and SSO-CTL (control condition) at 2 μM. CD23+ aBC and PB were sorted at D6. PIM2 mRNA relative expression (mean±SD, n=4) (left) and PIM2 protein expression by western blot (middle) and immunofluorescence (right) after PIM2 inhibition. • D-E. Decrease of PB generation after PIM2 inhibition. Cells were treated with SSO-PIM2 at 2 μM (D) or increase dose of the PIM inhibitor AZD1208 (PIMi as indicated, in μM) (E) and their control condition (SSO-CTL and DMSO respectively). The untreated condition is referred as “NT” (=no treatment). Left: Absolute number of PB obtained at D6 after PIM2 inhibition. Data are representative with bars at mean±SD, n=6. Right: Proportion of PB evaluated at D6 by flow cytometry after treatment with SSO-PIM2 at 2 μM. Data are representative of six independent experiments. • F. Transcription factors (IRF4, PRDM1, XBPIS, BACH2, BCL6, SPIB, IRF8 and PAX5) mRNA relative expression after specific PIM2 inhibition. Data are representative with bars at mean±SD, n=4.
# To identify genes whose transcription was acutely regulated during the final commitment step we developed our previously described in vitro differentiation model system on human naive B cells (NBCs) giving at day-6 (D6) four cell populations that were explored transcriptionally (data not shown) (Caron et al., 2015; Le Gallou et al., 2012; Pignarre et al., 2021). […]
# [2] = test system: IRF4, PRDM1, XBPIS, BACH2, BCL6, SPIB, IRF8 and PAX5; test: Transcription factor mRNA relative expression in generated PBs; conditions: SSO-PIM2 present
# Procedure: FIG. 1. Specific PIM2 inhibition affects the generation of plasmablasts • A. Diagram explaining SSO-PIM2 action. It binds to the second exon of the gene PIM2 leading in a skip of this exon during transcription and finally results to a frame shift and created an early stop-codon during translation. The protein is so a non-functional truncated protein. • B. Activated B cells were treated at D4 with an increasing dose of SSO-PIM2 and SSO-CTL (control condition) and recovered 48 hours later (at D6). PIM2 mRNA residual expression compared to the control condition adjust at 100% (mean±SD, n=3) and agarose gel of PIM2 PCR, showing exon skipping. • C. At D4, activated B cells were treated with SSO-PIM2 and SSO-CTL (control condition) at 2 μM. CD23+ aBC and PB were sorted at D6. PIM2 mRNA relative expression (mean±SD, n=4) (left) and PIM2 protein expression by western blot (middle) and immunofluorescence (right) after PIM2 inhibition. • D-E. Decrease of PB generation after PIM2 inhibition. Cells were treated with SSO-PIM2 at 2 μM (D) or increase dose of the PIM inhibitor AZD1208 (PIMi as indicated, in μM) (E) and their control condition (SSO-CTL and DMSO respectively). The untreated condition is referred as “NT” (=no treatment). Left: Absolute number of PB obtained at D6 after PIM2 inhibition. […] Right: Proportion of PB evaluated at D6 by flow cytometry after treatment with SSO-PIM2 at 2 μM. […]
# [3] = test system: p21^Cip1/WAF1; test: CDKN1A gene and p21^Cip1/WAF1 protein expression in PBs
# Source text: Like p27^Kip1, p21^Cip1/WAF1 is a tight-binding inhibitor of CDKs and inhibits cell cycle entry into S phase (Elledge et al., 1996). Plasmablast commitment leads to a significant increase of the CDKN1A gene, which encodes p21^Cip1/WAF1, and this independently to the expression of TP53 (data not shown). […] We then wondered whether PIM2 could modify p21^Cip1/WAF1 expression. […] To address this scenario, we developed endogenous protein immunoprecipitation (IP) and found in generated PBs and XG21 cell line as well that PIM2, p21^Cip1/WAF1 and HSP90β form a cytoplasmic multiprotein complex (data not shown).
substance,measurement,setting,value
5′-CCTCATGACGGATACCTGGAGTC-3′ (all phosphorodiamidate morpholino (PMO)) [SSO-PIM2],PIM2 knockdown,[1]; 2 μM,near-knockout condition for PIM2
same,duration of PIM2 near-knockout,[1]; 2 μM,up to 96 h
same,inhibition of PIM2 expression,"[1]; D6 collected PBs, increasing dose added at D4, 48 hours",dose-dependent inhibition of PIM2 expression
same,expression of key transcription factors involved in B cell differentiation in generated PBs,[2],not affected
same,CDKN1A gene upregulation in PBs,[3],did not interfere with CDKN1A gene upregulation
same,p21^Cip1/WAF1 protein expression and localization,[3]; PBs,decreased dramatically its cytoplasmic expression without nuclear relocalization
